This note sets out measurements from paper PMC7822874, “Chemoprotective antimalarials identified through quantitative high-throughput screening of Plasmodium blood and liver stage parasites” (Scientific Reports, 2021).

“And” between values parts separate entries of the source, which are not always exact repeats. Equal values may be shown once.

Series [1] concerns Plasmodium falciparum Dd2 asexual blood stage parasites. In words: microbe, parasite or virus in culture. On the set-up: species or system Plasmodium falciparum Dd2 in human erythrocytes; single determination (one 11-point concentration-response curve). The conditions noted are these: Plasmodium falciparum, DD2, Erythrocyte, 72 h; read-out: AC50.
The next series can be described thus: in vitro. As to conditions: human, n = 1.
Series [2] concerns P. falciparum Dd2 (clone B2) asexual blood stage parasites. In words: P. falciparum Dd2 asexual blood stage SYBR Green-I 72 h proliferation assay (qHTS). It is filed as cell-based, Plasmodium falciparum. As to conditions: Plasmodium falciparum, DD2, Dd2 parental; Hill fit, averaged from three independent replicates; top concentration 29 µM; read-out: Average AC50 (Log[M]), Dd2 (converted). A general note: Quantitative high-throughput screening tests each substance at several concentrations.

Series [3] has as its system P. falciparum Dd2 Cytb G131S. Nature of the series: SYBR Green ABS proliferation assay, NCGC00374598 selected clone C11. It is filed as cell-based, Plasmodium falciparum. As to conditions: Plasmodium falciparum, DD2, […]; averaged from three independent replicates; top concentration 29 µM; read-out: Average AC50 (Log[M]), NCGC00374598 clone C11 (Cytb G131S) (converted). A digest of the protocol:
(§1)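 72 h SYBR Green-I read; % response = relative growth vs controls. Clones from resistance selection, cloned by limiting dilution; 37 °C, 5% CO2/5% O2/90% N2.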

Series [4] concerns P. falciparum Dd2 Cytb V259L. Nature of the series: SYBR Green ABS proliferation assay, NCGC00473217 selected clone F06. It is filed as cell-based, Plasmodium falciparum. The conditions noted are these: Plasmodium falciparum, DD2, […]; averaged from three independent replicates; top concentration 29 µM; read-out: Average AC50 (Log[M]), NCGC00473217 clone F06 (Cytb V259L) (converted). A digest of the protocol: as §1

The subject of series [5] is P. falciparum Dd2 Cytb A122D. Nature of the series: SYBR Green ABS proliferation assay, NCGC00473217 selected clone F12. The class given is cell-based, Plasmodium falciparum. The conditions noted are these: Plasmodium falciparum, DD2, […]; averaged from three independent replicates; top concentration 29 µM; read-out: Average AC50 (Log[M]), NCGC00473217 clone F12 (Cytb A122D) (converted). The method in brief:
as §1

In series [6] the test system is P. falciparum Dd2 Cytb F123L. Nature of the series: SYBR Green ABS proliferation assay, NCGC00473217 selected clone G08. The conditions noted are these: Plasmodium falciparum, DD2, […]; averaged from three independent replicates; top concentration 29 µM; read-out: Average AC50 (Log[M]), NCGC00473217 clone G08 (Cytb F123L) (converted). It is filed as cell-based, Plasmodium falciparum. A digest of the protocol:
as §1

The test system of series [7] is T1, Plasmodium falciparum Dd2-attB (parental line), asexual blood stages.
T1 construct: Dd2-attB, the isogenic parental line
In words: microbe, parasite or virus in culture. The conditions noted are these: 72 h; n = 1. More on the design: replicate k of 3 (each line is one of three independent assays; the three lines of one compound and parasite line follow each other). A digest of the protocol: (§2)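 Three independent runs, compound subset only; parental vs ScDHODH line compared by two-sided Student's t-test.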

The test system of series [8] is T2, Plasmodium falciparum Dd2-attB-ScDHODH (transgenic line expressing yeast DHODH), asexual blood stages.
T2 construct: Dd2-attB-ScDHODH, the transgenic line that expresses yeast DHODH
In words: organism not typed. More on the design: replicate k of 3 (each line is one of three independent assays; the three lines of one compound and parasite line follow each other). The conditions noted are these: 72 h, n = 1. The method in brief: as §2

In the case of `COc1cccc(C(NC(C)=O)c2ccc3cccnc3c2O)c1` (centres unmarked) [MLS001204096-01], in series [1], the AC50 was 4.22 µM. This compound also yielded a CC50 at 48 h in “in vitro” (HepG2 cells) of 12.2 µM.
In the series “in vitro” (HepG2 cells), `CCNc1nc2c(c(=O)n(C)c(=O)n2C)n1Cc1ccc(F)cc1` [NCGC00142036-01] returned a CC50 at 48 h of 21.7 µM.
For `CCCCOCc1cc(CN2CCN(c3cccc(Cl)c3)CC2)c(O)c2ncccc12` [NCGC00114972-01], in series [1], the AC50 came out at 6.68 µM. This compound also displayed a CC50 at 48 h in the series “in vitro” (HepG2 cells) of 17.2 µM.
In turn, `COc1ccc(CCNc2nc3c(c(=O)n(C)c(=O)n3C)n2Cc2ccc(F)cc2)cc1OC` [NCGC00102121-01] returned a CC50 at 48 h in the series “in vitro” (HepG2 cells) of 13.7 µM.
As for `CCCN1C(CC(C)C)=N[S+](=O)([O-])c2cc(NC(=O)c3ccc(C)o3)ccc21` [NCGC00510048-01], the AC50 is 9.66e-06 M in series [2]; 7.38e-06 M in [3]; 7.38e-06 M in series [4]; 7.96e-06 M in [5]; 6.58e-06 M in series [6]; 7.1 µM in series [8] (read-out: Individual replicates / Log AC50 (converted)). In addition, the “Individual replicates / Log AC50 (M)” value is -5.5486 Log AC50 (M) and -5.3486 Log AC50 (M) and -5.1986 Log AC50 (M) in series [7]; -5.1486 Log AC50 (M) in series [8].
`O=C(Nc1ccc(Cl)cc1)c1nc2c(o1)CCN(Cc1cccc(O)c1)CC2` [NCGC00413336-01] showed a CC50 at 48 h in the series “in vitro” (HepG2 cells) of 17.7 µM.
In “in vitro” (HepG2 cells), `O=C(NCC1CC1)c1nc2c(o1)CCN(Cc1cccc(F)c1)CC2` [NCGC00413365-01] yielded a CC50 at 48 h of 44.4 µM.
In “in vitro” (HepG2 cells), `O=C(CCCCCCC(=O)Nc1ccccc1)NO` [NCGC00168085-01] displayed a CC50 at 48 h of 19.3 µM.
For `CC1=C[C@@H](CN2CCN(c3ccccn3)CC2)[C@H](C(C)C)C[C@H]1Cc1nnc(C)o1` [NCGC00392770-01], the CC50 at 48 h in the series “in vitro” (HepG2 cells) was found to be 35.3 µM.
For `Cc1cc(C)n(CCC(=O)N2CC(Oc3ccc(-c4nc(-c5ccccc5)no4)cc3)C2)n1` [NCGC00441169-01], in “in vitro” (HepG2 cells), the CC50 at 48 h was found to be 10.9 µM.
The compound `Oc1ccccc1C(Nc1nccs1)c1ccc2cccnc2c1O` (centres unmarked) [MLS000759877-01] had a CC50 at 48 h in “in vitro” (HepG2 cells) of 19.3 µM.
`N#Cc1c(Cl)nsc1NC(=O)c1ccccc1` [MLS000696348-01] registered a CC50 at 48 h in “in vitro” (HepG2 cells) of 13.7 µM.
In turn, `CCCCC(=O)NC(c1ccc(Cl)cc1Cl)c1ccc2cccnc2c1O` (centres unmarked) [MLS001212967-01] gave a CC50 at 48 h in the series “in vitro” (HepG2 cells) of 21.7 µM.
As to `O=C(c1ccc2[nH]ccc2c1)N1CCC2(CC1)NC(c1ccc(Br)cc1)=NO2` [NCGC00446987-01], in the series “in vitro” (HepG2 cells), the CC50 at 48 h came to 24.3 µM.
For the compound `COc1ccc(Nc2nc(N3CCCCC3)c3ccccc3n2)cc1` [MLS000569818-01], the CC50 at 48 h in “in vitro” (HepG2 cells) was determined as 30.6 µM.
As for `CCC(C)NC(=O)N1CC(Oc2ccc(-c3noc(C4CCOCC4)n3)cc2)C1` (centres unmarked) [NCGC00458059-01], in the series “in vitro” (hepg2), the CC50 at 48 h was found to be 12.2 µM.
In the case of `CCOC(=O)C1=C(c2ccccc2)N=C(N)NC1c1ccc(OCc2ccc(Cl)cc2)c(OC)c1` (centres unmarked) [MLS000771452-01], the CC50 at 48 h in “in vitro” (HepG2 cells) came to 34.3 µM.
`C=C1C(=O)OC2CC(C)C3C=CC(=O)C3(C)C(O)C12` (centres unmarked) [MLS002701927-01] gave a CC50 at 48 h in “in vitro” (hepg2) of 15.3 µM.
`C=C1C(=O)O[C@@H]2C[C@@H](C)[C@@H]3C=CC(=O)[C@@]3(C)[C@@H](OC(=O)CC(=O)O[C@H]3[C@@H]4C(=C)C(=O)O[C@@H]4C[C@@H](C)[C@@H]4C=CC(=O)[C@]43C)[C@H]12` [MLS000728515-01] gave a CC50 at 48 h in “in vitro” (hepg2) of 10.9 µM.
Consider `O=C(Cc1c[nH]c2ccccc12)N1CCc2c([nH]c(-c3ccc(F)cc3)nc2=O)C1` [NCGC00439989-01], for which the CC50 at 48 h in the series “in vitro” (HepG2 cells) came out at 0.00432 µM.
`COc1ccc(-c2nc(CC3CCN(C(=O)c4n[nH]c(=O)c5ccccc45)C3)no2)cc1` (centres unmarked) [NCGC00443252-01] came in with a CC50 at 48 h in the series “in vitro” (HepG2 cells) of 19.3 µM.
On to `COc1cnc(-c2ccccn2)nc1Sc1ccccc1` [MLS000692209-01], for which the CC50 at 48 h in the series “in vitro” (HepG2 cells) was 24.3 µM.
Compound `CC(=O)c1cccc(N[S+](=O)([O-])c2cc(-c3cnc(C4CC4)o3)ccc2C)c1` [NCGC00131168-01] yielded a CC50 at 48 h in the series “in vitro” (HepG2 cells) of 30.6 µM.
